Test results taken from publication PMC5085647.

Experiments:
U2OS cells = assay: LDH release cytotoxicity assay; type: cell-based, human; conditions: BTZ 10 nM, positive control, n = 3
Procedure: The release of LDH (Lactate dehydrogenase) was used as a marker for cell toxicity. After treatment with 50 and 100 µM SsCEI 4 for 24 h, cleared supernatants were incubated with reaction buffer for 30 min at room temperature according to the manufacturer instructions (ab65393, LDH-Cytotoxicity Assay Kit II). Absorbance was measured at 490 nm and the cytotoxicity percentage was calculated as: [(Absorbancetest sample − Absorbancelow control)/(Absorbancehigh control − Absorbancelow control) × 100].

porcine liver APEH = biological target: T1, porcine liver APEH (Sus scrofa, UniProt P19205); assay: APEH inhibition in cell-free assay (Ac-Ala-pNA substrate); type: biochemical; conditions: Figure S1A
T1 sequence (P19205 1-732): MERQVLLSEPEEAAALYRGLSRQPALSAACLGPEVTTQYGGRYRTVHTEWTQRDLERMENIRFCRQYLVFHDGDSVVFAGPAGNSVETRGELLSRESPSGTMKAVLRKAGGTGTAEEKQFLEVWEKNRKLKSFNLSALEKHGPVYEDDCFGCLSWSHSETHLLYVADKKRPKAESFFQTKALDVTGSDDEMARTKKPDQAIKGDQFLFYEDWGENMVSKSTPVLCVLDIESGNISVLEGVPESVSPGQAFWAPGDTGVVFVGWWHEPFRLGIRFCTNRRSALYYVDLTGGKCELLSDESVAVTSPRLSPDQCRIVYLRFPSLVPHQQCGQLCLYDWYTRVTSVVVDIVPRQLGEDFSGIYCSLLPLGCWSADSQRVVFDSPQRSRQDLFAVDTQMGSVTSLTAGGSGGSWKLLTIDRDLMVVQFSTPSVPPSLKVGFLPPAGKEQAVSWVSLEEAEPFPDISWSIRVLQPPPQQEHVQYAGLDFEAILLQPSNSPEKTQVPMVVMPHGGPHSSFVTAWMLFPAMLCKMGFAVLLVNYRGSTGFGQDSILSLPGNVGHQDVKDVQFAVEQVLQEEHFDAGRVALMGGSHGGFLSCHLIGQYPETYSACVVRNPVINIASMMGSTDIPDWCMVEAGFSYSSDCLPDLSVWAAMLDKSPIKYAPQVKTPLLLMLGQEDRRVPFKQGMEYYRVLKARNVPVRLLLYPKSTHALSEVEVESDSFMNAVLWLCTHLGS

[1] = tested on: Beclin-1 and LC3-II in U2OS cells; assay: Autophagy markers Beclin-1 and LC3-I/LC3-II (Western blot); type: cell-based, human; conditions: Quercetin for 2 h and overnight
Procedure: For Western blotting analysis, protein aliquots (30 µg/lane) were run on SDS-PAGE (8% or 12.5%) and then electroblotted onto PVDF membranes (ImmobilonTM, Millipore, Milan, Italy). Membranes were next incubated with the specific primary antibodies (1 h at room temperature) and then incubated with the appropriate dilution of secondary antibodies (1 h at room temperature). Immunocomplexes were visualized by enhanced chemiluminescence and autoradiography according to the manufacturer protocol (Santa Cruz Biotechnology) and quantified by densitometric analysis with Image J software (NIH, Bethesda, […], USA), using the β-actin and Vinculin levels as loading control for normalization.
Figure S3. […] (A, left panel)
U2OS cells were treated with DMSO (C) or SsCEI 4 (50 and 100 µM) for 72 h. Then, cell lysates were […]
harvested and subjected to immunoblotting for Beclin-1; (A, right panel) Results of densitometry of […]
Beclin-1 bands are expressed as the mean of relationships between densitometries of Beclin-1 and […]
β-actin bands, used as loading control; (B) U2OS cells were treated with DMSO (C) or SsCEI 4 (50 […]
and 100 µM) for 72 h, and cell lysates were used to analyze LC3-II conversion by immunoblotting […]
using the specific antibody against LC3, which is able to recognize both the upper LC3-I band and […]
the lower LC3-II. […]

Row | Effect toward APEH activity (porcine liver APEH) | SMILES | Cytotoxicity (LDH release in culture medium) (U2OS cells) | Beclin-1 and LC3-II levels (autophagy), positive control [1]
1 | completely ineffective | CC(C)C[C@H](NC(=O)[C@H](Cc1ccccc1)NC(=O)c1cnccn1)B(O)O [Bortezomib] | exceeding 200% | 
2 |  | O=c1c(O)c(-c2ccc(O)c(O)c2)oc2cc(O)cc(O)c12 [Quercetin] |  | strongly induced
